# Reference: patent US5608075A (priority 1995, dated 1997)
# Where a name gives a salt, the structure may show the parent alone.
# Assays:
# [1] = test system: blood pressure in conscious dogs; experiment: Hypotensive effects in conscious dogs before and after furosemide; format: in vivo, dog; details: cumulative iv 0.3 to 3 mg/kg
# Method: (§1) The hypotensive effects of 2-butyl-4-chloro-1-[2'-(1H-tetrazol-5-yl)biphenyl-4-yl)methyl]-5-hydroxymethylimidazole sodium salt were compared before and after furosemide administration to conscious dogs. […] Plasma renin activity (PRA) in these animals was 1.5±0.5 ng AI/ml/hr. Four days later, furosemide was given to three of these dogs at 10 mg/kg im at 18 and 2 hours before the experiment and increased PRA to 19.9±7.2 ng AI/ml/hr. […] Thus a combined therapy of these two classes of drugs will be likely to increase the response rate to therapy among hypertensive patients.
# pressor response to AII = experiment: Inhibition of the pressor response to AII in conscious dogs; format: in vivo, dog
# Method: as §1
# [2] = Solubility studies in nonaqueous solvents at 25° C.; format: physicochemical; details: overnight equilibration; for solubility: organic solvent or mixture, isopropyl acetate
# [3] = format: physicochemical; details: 25° C., overnight equilibration
# Description: From these facts it was concluded that the minor endotherm corresponds to an enantiotropic polymorphic transition. The major endotherm is the melting of the high-temperature form. The low-temperature stable polymorph (up to the transition temperature) is designated Form I and the high-temperature stable polymorph is designated Form II. […] Form I is the solid modification consistently obtained by solvent isolation. This was confirmed by recrystallizing the drug substance under varying conditions and analyzing by XRPD. Form II has been obtained only from DSC or related high temperature experiments.
# AT1 receptor = details: cited from earlier work
# [4] = test system: blood pressure in renal hypertensive rats; experiment: Antihypertensive effects in renal hypertensive rats (left renal artery ligation); format: in vivo, rat
# Method: This procedure increases blood pressure by increasing renin production with consequent elevation of AII levels. Compounds are administered orally at 100 mg/kg and/or intravenously via a cannula in the jugular vein at 10 mg/kg. Arterial blood pressure is continuously measured directly through a carotid artery cannula and recorded using a pressure transducer and a polygraph. Blood pressure levels after treatment are compared to pretreatment levels to determine the antihypertensive effects of the compounds (See Table 6).
# AII = details: cited from earlier work
# arterial pressure = details: cited from earlier work
# [5] = test system: renal vasoconstrictor effect of indomethacin and meclofenamate; details: dogs; cited from earlier work
# [6] = test system: renal vasoconstrictor effect of indomethacin; details: dogs with non-hypotensive hemorrhage; cited from earlier work
# plasma renin = experiment: Plasma renin activity (PRA) in conscious dogs; format: in vivo, dog; details: furosemide 10 mg/kg im at 18 and 2 hours before the experiment, three dogs; PRA before furosemide 1.5±0.5
# Method: as §1
smiles,measurement,setting,value
CCCCc1nc(Cl)c(CO)n1Cc1ccc(-c2ccccc2-c2nn[nH]n2)cc1 [2-butyl-4-chloro-1-[2'-(1H-tetrazol-5-yl)biphenyl-4-yl)methyl]-5-hydroxymethylimidazole sodium salt],decrease in blood pressure after furosemide,[1]; furosemide-treated dogs,significant decrease in blood pressure in a dose-dependent manner
same,blood pressure lowering in normotensive conscious dogs,"[1]; n=4, before furosemide",did not lower blood pressure
same,inhibition of the pressor response to AII,"pressor response to AII; cumulative iv 0.3 to 3 mg/kg, AII 0.1 μg/kg iv, 10 min post dose, before furosemide",effective in inhibiting the pressor response to AII
same,inhibition of the pressor response to AII after furosemide,"pressor response to AII; cumulative iv, furosemide-treated dogs",inhibited the pressor response to AII at the two higher doses
"CCCCc1nc(Cl)c(CO)n1Cc1ccc(-c2ccccc2-c2nnn[nH]2)cc1.[K] [Form I, 2-n-butyl-4-chloro-1-[(2'-(tetrazol-5-yl)-1,1'-biphenyl-4-yl)-methyl]-1H-imidazole-5-methanol potassium salt]",solubility in ethyl acetate,[2]; ethyl acetate,~ 0.3 mg/g
same,solubility in isopropanol,[2]; isopropanol,~ 35 mg/g
same,solubility in methyl ethyl ketone,[2]; methyl ethyl ketone,~ 1 mg/g
same,solubility,[2],18 µg/mL
same,polymorph conversion in isopropyl acetate,[3],no conversion of either Form was observed
"CCCCc1nc(Cl)c(CO)n1Cc1ccc(-c2ccccc2-c2nn[nH]n2)cc1 [Form II, 2-n-butyl-4-chloro-1-[(2'-(tetrazol-5-yl)-1,1'-biphenyl]-1H-imidazole-5-methanolpotassium salt]",solubility,[2],41 µg/mL
same,"polymorph conversion in isopropanol, methyl ethyl ketone and ethyl acetate",[3],converts to Form I after overnight equilibration
same,polymorph conversion in isopropyl acetate,[3],no conversion of either Form was observed
"CCCCc1nc(Cl)c(CO)n1Cc1ccc(-c2ccccc2-c2nn[nH]n2)cc1 [Losartan, 2-butyl-4-chloro-1-[(2'-tetrazol-5-yl)-biphenyl-4-yl]methyl]-5-(hydroxymethyl)imidazole potassium salt]","AII antagonist activity, oral",AT1 receptor,orally active AII antagonists
same,"Antihypertensive Effects in Renal Hypertensive Rats, Intravenous Activity","[4]; intravenous, 10 mg/kg",+ (Significant decrease in blood pressure at 10 mg/kg or less)
same,"Antihypertensive Effects in Renal Hypertensive Rats, Oral Activity","[4]; oral, 100 mg/kg",+ (Significant decrease in blood pressure at 100 mg/kg or less)
"CNCC(=O)N[C@@H](CCCN=C(N)N)C(=O)N[C@H](C(=O)N[C@@H](Cc1ccc(O)cc1)C(=O)N[C@H](C(=O)N[C@@H](Cc1cnc[nH]1)C(=O)N1CCC[C@H]1C(=O)N[C@@H](C)C(=O)O)C(C)C)C(C)C [Saralasin, [Sar^1, Ala^8] AII]",block of effects of AII on the blood pressure,AII; pithed rats,blocks the effects of AII on the blood pressure of pithed rats
same,competitive antagonism of the actions of AII,"AII; rat, in vivo",one of the most potent competitive antagonists of the actions of AII
same,oral effectiveness,arterial pressure; oral doses,oral doses being ineffective
same,duration of pharmacological effects,arterial pressure; parenteral administration,relatively short-lasting
same,lowering of arterial pressure,arterial pressure; when the (elevated) pressure is dependent on circulating AII,lower arterial pressure in mammals and man
same,pressor effects (agonistic character),arterial pressure; when the pressure is not sustained by AII,generally elicits pressor effects when the pressure is not sustained by AII
same,inhibition of renal vasoconstrictor effect of indomethacin and meclofenamate,[5],inhibit the renal vasoconstrictor effect of indomethacin and meclofenamate in dogs
C[C@H](CS)C(=O)N1CCC[C@H]1C(=O)O [captopril],reversal of renal vasoconstrictor effect of indomethacin,[6],reverse the renal vasoconstrictor effect of indomethacin in dogs
NS(=O)(=O)c1cc(C(=O)O)c(NCc2ccco2)cc1Cl [furosemide],plasma renin activity (PRA) after furosemide,plasma renin,19.9±7.2 ng AI/ml/hr
